Assay results from US20200115353A1, “NEW COMPOUNDS INHIBITORS OF THE YAP/TAZ-TEAD INTERACTION AND THEIR USE IN THE TREATMENT OF MALIGNANT MESOTHELIOMA” (INVENTIVA, priority 2017, published 2020).

What follows are molecules tested against T1, YAP-TEAD interaction (full length human TEAD1-Gal4 fusion, full length YAP mutant S127A, S397A) (UniProt P04386+P28347) (assay: Cell-based TEAD-GAL4 transactivation assay (luciferase reporter, HEK293)). Settings: HEK293 cells, compounds 0.1 μM to 30 μM, 24 h, concentration that inhibited the luciferase activity by 50%.
T1 construct: The TEAD1 construct was prepared by cloning the full length human TEAD1 cDNA; expressed in transfected cells; host or cells: HEK293 GripTite 293 MSR (Invitrogen R795-07), transiently transfected with pSG5_CMV plasmids
T1 sequence (P04386+P28347 fused, stated change not applied): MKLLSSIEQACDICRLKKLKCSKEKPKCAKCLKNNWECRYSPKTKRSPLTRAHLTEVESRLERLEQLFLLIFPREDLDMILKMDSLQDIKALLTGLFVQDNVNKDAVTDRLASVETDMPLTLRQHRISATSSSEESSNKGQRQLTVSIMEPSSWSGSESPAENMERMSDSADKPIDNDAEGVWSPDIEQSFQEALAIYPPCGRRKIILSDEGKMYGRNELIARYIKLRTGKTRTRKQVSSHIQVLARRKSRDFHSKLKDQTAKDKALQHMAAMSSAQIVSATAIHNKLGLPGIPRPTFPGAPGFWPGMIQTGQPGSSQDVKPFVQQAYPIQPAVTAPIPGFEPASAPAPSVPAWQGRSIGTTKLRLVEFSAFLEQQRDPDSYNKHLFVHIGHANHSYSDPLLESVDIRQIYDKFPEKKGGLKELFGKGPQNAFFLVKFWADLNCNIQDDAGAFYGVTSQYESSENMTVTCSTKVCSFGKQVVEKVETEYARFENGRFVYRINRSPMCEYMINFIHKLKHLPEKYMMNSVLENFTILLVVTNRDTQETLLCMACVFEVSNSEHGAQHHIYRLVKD
Description: To identify inhibitors of YAP-TEAD interaction, a transient transactivation assays was carried out into HEK293 cell line (HEK293 GripTite™ 293 MSR (Invitrogen R795-07)) using plasmids containing the full length TEAD1 sequences, the full length YAP mutant (S127A, S397A) and a luciferase gene reporter. All expression constructs were performed into pSG5 backbone plasmid in which the SV40 promoter was replaced by the CMV promoter. The TEAD1 construct was prepared by cloning the full length human TEAD1 cDNA in fusion with the Gal4 DNA Binding Domain (AA 1-148) into pSG5_CMV to create the TEAD1(FL)_hum_pSG5Gal4_CMV. The full length YAP mutant (S127A, S397A) was also cloned into pSG_5 CMV to create the YAP(FL)_hum_pSG5_[…]. The reporter plasmid GAL4(5×RE)_[…]_pGL3-Basic contains 5 copies of the GAL4 responsive element (5′-TCGGAGGACAGTACTCC-3′) upstream of the thymidine kinase (TK) promoter (−105/+56) inserted in a pGL3-Basic vector. To evaluate the selectivity of our compounds in blocking the YAP-TEAD interaction, a counter-screening protein-protein interaction transactivation assays was also established. Briefly, two other expression plasmids, the pBD-P53 which express the P53 (AA 72-390) in fusion with Gal4 and the pAD-SV40T which express the SV40 large T antigen (AA 84-708,AgT), were created. HEK293 cells were seeded at 5×10^4 cells/well in 96 well plates (assay plates) in DMEM medium containing 4.5 g/L D-glucose, 10% high inactivated (HI) fetal bovine serum 1% Glutamax, 1% non-essential amino acid and 1% sodium pyruvate and 0.5% penicillin/streptomycin 37° C. in a humidified atmosphere of 8% CO2. After 24 h, transfections are performed using Jet-PEI as transfectant (101B-010 Polyplus Transfection), according to the instructions of the manufacturer (N/P=10) and a ratio YAP/TEAD=10 (per well: 50 ng of YAP(FL), 5 ng of TEAD(FL) and 50 ng of reporter plasmid). Six hours after cell transfection, the plates (‘assay plate’) were washed with 100 μl PBS per well and cell were treated with compounds in semi-log from 0.1 μM to 30 μM or DMSO 0.5% as control in DMEM 4.5 g/L D-Glucose without phenol red, 0.3% BSA, 1% glutamax, 1% NEAA, 1% sodium pyruvate. Twenty-four hours later, the luciferase activity was determined after addition of 100 μl of Steady Glo™ luciferase assay system (Promega E2550) according to the manufacturer's directions. Luciferase activity in cell extracts is measured by reading luminescence using the Envision device.
The cellular response was determined by fitting the concentration response curves using a 3-parameter curve fit equation and determining the concentration that inhibited the luciferase activity by 50%.

Compound	IC50
CN(/N=C/c1cccc(OCCO)c1)C1=NS(=O)(=O)c2ccccc21 [Ex 2, 2-[3-[(E)-[(1,1-dioxo-1,2-benzothiazol-3-yl)-methyl-hydrazono]methyl]phenoxy]ethanol]	1.11 µM
COCn1c(=O)n(C2CCC2)c2cc(/C=N/N(C)C3=NS(=O)(=O)c4ccccc43)ccc21 [Ex 111, 3-cyclobutyl-5-[(E)-[(1,1-dioxo-1,2-benzothiazol-3-yl)-methyl-hydrazono]methyl]-1-(methoxymethyl)benzimidazol-2-one]	8.57 µM
Cc1ccc2c(c1)C(N(C)/N=C/c1ccc3[nH]c(=O)n(C)c3c1)=NS2(=O)=O [Ex 70, 3-methyl-5-[(E)-[methyl-(5-methyl-1,1-dioxo-1,2-benzothiazol-3-yl) hydrazono]methyl]-1H-benzimidazol-2-one]	1.58 µM
CCOCn1c(=O)n(C2CCC2)c2cc(/C=N/N(C)C3=NS(=O)(=O)c4ccccc43)ccc21 [Ex 116, 3-cyclobutyl-5-[(E)-[(1,1-dioxo-1,2-benzothiazol-3-yl)-methyl-hydrazono]methyl]-1-(ethoxymethyl)benzimidazol-2-one]	5.03 µM
CCOc1cc(/C=N/N(C)C2=NS(=O)(=O)c3ccccc32)ccc1F [Ex 11, N-[(E)-(3-ethoxy-4-fluoro-phenyl)methyleneamino]-N-methyl-1,1-dioxo-1,2-benzothiazol-3-amine]	2.85 µM
CCn1c(=O)[nH]c2ccc(/C=N/N(CC(C)C)C3=NS(=O)(=O)c4cc(B(O)O)ccc43)cc21 [Ex 84, [3-[[(E)-(3-ethyl-2-oxo-1H-benzimidazol-5-yl)methyleneamino]-isobutyl-amino]-1,1-dioxo-1,2-benzothiazol-6-yl]boronic acid]	1.67 µM
CN(/N=C/c1cccc(N(C)C)c1)C1=NS(=O)(=O)c2ccccc21 [Ex 4, N-[(E)-[3-(dimethylamino)phenyl]methyleneamino]-N-methyl-1,1-dioxo-1,2-benzothiazol-3-amine]	11.9 µM
CCOc1ccc2c(c1)S(=O)(=O)N=C2N(CC(C)C)/N=C/c1ccc2c(c1)C(CC)(CC)C(=O)N2 [Ex 97, 5-[(E)-[(6-ethoxy-1,1-dioxo-1,2-benzothiazol-3-yl)-isobutyl-hydrazono]methyl]-3,3-diethyl-indolin-2-one]	2.77 µM
COc1cc(/C=N/N(CC(C)C)C2=NS(=O)(=O)c3cc(B4OC(=O)CN(C)CC(=O)O4)ccc32)ccc1F [Ex 69, 2-[3-[[(E)-(4-fluoro-3-methoxy-phenyl)methyleneamino]-isobutyl-amino]-1,1-dioxo-1,2-benzothiazol-6-yl]-6-methyl-1,3,6,2-dioxazaborocane-4,8-dione]	1.04 µM
COc1cc(/C=N/N(CC(C)C)C2=NS(=O)(=O)c3cc(OCB(O)O)ccc32)ccc1F [Ex 92, [3-[[(E)-(4-fluoro-3-methoxy-phenyl)methyleneamino]-isobutyl-amino]-1,1-dioxo-1,2-benzothiazol-6-yl]oxymethylboronic acid]	0.86 µM
CC(C)n1c(=O)[nH]c2ccc(/C=N/N(C)C3=NS(=O)(=O)c4ccccc43)cc21 [Ex 26, 5-[(E)-[(1,1-dioxo-1,2-benzothiazol-3-yl)-methyl-hydrazono]methyl]-3-isopropyl-1H-benzimidazol-2-one]	0.62 µM
COc1cc(/C=N/N(C2=NS(=O)(=O)c3cc(B(O)O)ccc32)C(C)C)ccc1F [Ex 102, [3-[[(E)-(4-fluoro-3-methoxy-phenyl)methyleneamino]-isopropyl-amino]-1,1-dioxo-1,2-benzothiazol-6-yl]boronic acid]	3.01 µM
COc1cc(/C=N/N(C)C2=NS(=O)(=O)c3ccc(OCC(=O)N(C)C)cc32)ccc1F [Ex 58, 2-[[3-[[(E)-(4-fluoro-3-methoxy-phenyl)methyleneamino]-methyl-amino]-1,1-dioxo-1,2-benzothiazol-5-yl]oxy]-N,N-dimethyl-acetamide]	3.42 µM
CC(C)CN(/N=C/c1ccc2[nH]c(=O)n(C)c2c1)C1=NS(=O)(=O)c2cc(B(O)O)ccc21 [Ex 65, [3-[isobutyl-[(E)-(3-methyl-2-oxo-1H-benzimidazol-5-yl)methyleneamino]amino]-1,1-dioxo-1,2-benzothiazol-6-yl]boronic acid]	4.04 µM
COc1cc(/C=N/N(CC2CCC2)C2=NS(=O)(=O)c3cc(B(O)O)ccc32)ccc1F [Ex 80, [3-[cyclobutylmethyl-[(E)-(4-fluoro-3-methoxy-phenyl)methyleneamino]amino]-1,1-dioxo-1,2-benzothiazol-6-yl]boronic acid]	1.07 µM
CN(/N=C/c1ccc2c(c1)n(C1CCC1)c(=O)n2COC(=O)C(C)(C)C)C1=NS(=O)(=O)c2ccccc21 [Ex 113, [3-cyclobutyl-5-[(E)-[(1,1-dioxo-1,2-benzothiazol-3-yl)-methyl-hydrazono]methyl]-2-oxo-benzimidazol-1-yl]methyl 2,2-dimethylpropanoate]	4 µM
COc1cc(/C=N/N(CC(C)C)C2=NS(=O)(=O)c3ccc(OCB(O)O)cc32)ccc1F [Ex 95, [3-[[(E)-(4-fluoro-3-methoxy-phenyl)methyleneamino]-isobutyl-amino]-1,1-dioxo-1,2-benzothiazol-5-yl]oxymethylboronic acid]	1.35 µM
CCCC(=O)OCn1c(=O)n(C2CCC2)c2cc(/C=N/N(C)C3=NS(=O)(=O)c4ccccc43)ccc21 [Ex 114, [3-cyclobutyl-5-[(E)-[(1,1-dioxo-1,2-benzothiazol-3-yl)-methyl-hydrazono]methyl]-2-oxo-benzimidazol-1-yl]methyl butanoate]	4.95 µM
CSc1cc(/C=N/N(C)C2=NS(=O)(=O)c3ccccc32)ccc1F [Ex 86, N-[(E)-(4-fluoro-3-methylsulfanyl-phenyl)methyleneamino]-N-methyl-1,1-dioxo-1,2-benzothiazol-3-amine]	1.31 µM
COc1cc(/C=N/N(CC(C)C)C2=NS(=O)(=O)c3cc(B(O)O)ccc32)ccc1F [Ex 63, [3-[[(E)-(4-fluoro-3-methoxy-phenyl)methyleneamino]-isobutyl-amino]-1,1-dioxo-1,2-benzothiazol-6-yl]boronic acid]	1.08 µM
COc1cc(/C=N/N(C)C2=NS(=O)(=O)c3ccc([N+](=O)[O-])cc32)ccc1F [Ex 47, N-[(E)-(4-fluoro-3-methoxy-phenyl)methyleneamino]-N-methyl-5-nitro-1,1-dioxo-1,2-benzothiazol-3-amine]	3.4 µM
CN(/N=C/c1ccc2[nH]c(=O)n(C3CC3)c2c1)C1=NS(=O)(=O)c2ccccc21 [Ex 27, 3-cyclopropyl-5-[(E)-[(1,1-dioxo-1,2-benzothiazol-3-yl)-methyl-hydrazono]methyl]-1H-benzimidazol-2-one]	2.92 µM
COc1cc(/C=N/N(CCc2ccccn2)C2=NS(=O)(=O)c3ccccc32)ccc1F [Ex 9, N-[(E)-(4-fluoro-3-methoxy-phenyl)methyleneamino]-1,1-dioxo-N-[2-(2-pyridyl)ethyl]-1,2-benzothiazol-3-amine]	3.94 µM
CCN(/N=C/c1ccc(F)c(OC)c1)C1=NS(=O)(=O)c2cc(B(O)O)ccc21 [Ex 62, [3-[ethyl-[(E)-(4-fluoro-3-methoxy-phenyl)methyleneamino]amino]-1,1-dioxo-1,2-benzothiazol-6-yl]boronic acid]	1.98 µM
CCCOc1cc(/C=N/N(C)C2=NS(=O)(=O)c3ccccc32)ccc1F [Ex 12, N-[(E)-(4-fluoro-3-propoxy-phenyl)methyleneamino]-N-methyl-1,1-dioxo-1,2-benzothiazol-3-amine]	1.56 µM
CN(/N=C/c1ccc(F)c(C(N)=O)c1)C1=NS(=O)(=O)c2ccccc21 [Ex 17, 5-[(E)-[(1,1-dioxo-1,2-benzothiazol-3-yl)-methyl-hydrazono]methyl]-2-fluoro-benzamide]	2.75 µM

Same assay, conditions: HEK293 cells, compounds 0.1 μM to 30 μM, 24 h, luciferase activity

Compound	Max Act. (%), TEAD-GAL4 Transactivation activity
COc1cc(/C=N/N(CC(C)C)C2=NS(=O)(=O)c3cc(OCC(N)=O)ccc32)ccc1F [Ex 104, 2-[[3-[[(E)-(4-fluoro-3-methoxy-phenyl)methyleneamino]-isobutyl. amino]-1,1-dioxo-1,2-benzothiazol-6-yl]oxy]acetamide]	72%
